{
  "source": "patent US8053013B2",
  "about": "“Flavour modulating substances” (Quest International Services B.V., priority 2004, dated 2011)",
  "key": {"[1]": {"assay": "Panel evaluation of HIT Duck Flavour samples with and without N Lactoyl glucosamine (Example 8)", "details": "Sample B: 0.006% N Lactoyl glucosamine with 0.6% NaCl, 0.03% MSG, 0.1% HIT Duck Flavour (Quest)", "protocol": "Two samples were prepared as follow and compared:\nSample A: 0.6% of NaCl, 0.03% of MSG and 0.1% of HIT Duck Flavour (Quest)\nSample B: 0.6% of NaCl, 0.03% of MSG, 0.1% of HIT Duck Flavour (Quest) and 0.006% N Lactoyl glucosamine as prepared in example 4.\nThe samples were evaluated by a panel of experienced flavourists. There was general agreement about the difference in taste between the samples: […]"}, "[2]": {"assay": "Tasting session by a panel of experienced flavourists: solution in tap water (Example 7)", "details": "0.1 wt % in tap water", "protocol": "For a tasting session by a panel of experienced flavourists a solution comprising 0.1 wt % of a flavour composition as prepared in example 4 in tap water was prepared."}},
  "data": [
    {"smiles": "CC(O)C(=O)N[C@H]1C(O)O[C@H](CO)[C@@H](O)[C@@H]1O", "note": "(some centres unmarked) [Example 4, N-Lactoyl-Glucosamine]", "values": [
      {"measurement": "taste described by flavourists, compared with sample A without the substance", "setting": "[1]", "value": "savoury duck flavour, with slightly metallic taste, and more meaty character, authenticity, and naturalness than sample A"},
      {"measurement": "taste of the solution described by panellists", "setting": "[2]", "value": "strong metallic, bloody, raw meat like"}
    ]}
  ]
}
